Measured values: patent US20200077658A1, “Pesticidal Compounds” (BASF SE, priority 2016, published 2020)

Legend:
Type in all cases: in vivo
[1] = test system: boll weevil (Anthonomus grandis); experiment: Action on boll weevil (Anthonomus grandis), 96-well microtiter plate diet test; details: 120 h, egg and larval mortality after 5 days, read-out: mortality in comparison with untreated controls
Method: For evaluating control of boll weevil (Anthonomus grandis) the test unit consisted of 96-well-microtiter plates containing an insect diet and 5-10 A. grandis eggs.
The compounds were formulated using a solution containing 75% v/v water and 25% v/v DMSO. Different concentrations of formulated compounds were sprayed onto the insect diet at 5 μl, using a custom built micro atomizer, at two replications.
After application, microtiter plates were incubated at about 25±1° C. and about 75±5% relative humidity for 5 days. Egg and larval mortality was then visually assessed.

[2] = test system: Diamond Back Moth (Plutella xylostella); experiment: Action on diamond back moth (Plutella xylostella), cabbage leaf dip; details: foliar, 3rd instar larvae on dipped cabbage leaves, 72 hours after treatment, read-out: mortality in comparison with untreated controls
Method: The active compound is dissolved at the desired concentration in a mixture of 1:1 (vol:vol) distilled water:acetone. Surfactant (Kinetic® HV) is added at a rate of 0.01% (vol/vol).The test solution is prepared at the day of use.
Leaves of cabbage were dipped in test solution and air-dried. Treated leaves were placed in petri dishes lined with moist filter paper and inoculated with ten 3rd instar larvae. Mortality was recorded 72 hours after treatment. Feeding damages were also recorded using a scale of 0-100%.

[3] = test system: Silverleaf Whitefly (Bemisia argentifoli) (Adults); experiment: Action on silverleaf whitefly (Bemisia argentifoli) adults, sprayed cotton plants; details: Bemisia argentifolii, 72 h, 3 days after treatment, read-out: mortality in comparison with untreated controls
Method: (§1) The active compounds were formulated by a Tecan liquid handler in 100% cyclohexanone as a 10,000 ppm solution supplied in tubes. The 10,000 ppm solution was serially diluted in 100% cyclohexanone to make interim solutions. These served as stock solutions for which final dilutions were made by the Tecan in 50% acetone:50% water (v/v) into 5 or 10 ml glass vials. A nonionic surfactant (Kinetic®) was included in the solution at a volume of 0.01% (v/v). The vials were then inserted into an automated electrostatic sprayer equipped with an atomizing nozzle for application to plants/insects.
Cotton plants at the cotyledon stage (one plant per pot) were sprayed by an automated electrostatic plant sprayer equipped with an atomizing spray nozzle. The plants were dried in the sprayer fume hood and then removed from the sprayer. Each pot was placed into a plastic cup and about 10 to 12 whitefly adults (approximately 3-5 days old) were introduced. The insects were collected using an aspirator and a nontoxic Tygon® tubing connected to a barrier pipette tip. The tip, containing the collected insects, was then gently inserted into the soil containing the treated plant, allowing insects to crawl out of the tip to reach the foliage for feeding. Cups were covered with a reusable screened lid. Test plants were maintained in a growth room at about […] and about 20-40% relative humidity for 3 days, avoiding direct exposure to fluorescent light (24 hour photoperiod) to prevent trapping of heat inside the cup. Mortality was assessed 3 days after treatment, compared to untreated control plants.

[4] = test system: tobacco budworm (Heliothis virescens); experiment: Action on tobacco budworm (Heliothis virescens), 96-well microtiter plate diet test; details: 120 h, egg and larval mortality after 5 days, read-out: mortality in comparison with untreated controls
Method: For evaluating control of tobacco budworm (Helliothis virescens) the test unit consisted of 96-well-microtiter plates containing an insect diet and 15-25 H. virescens eggs.
The compounds were formulated using a solution containing 75% v/v water and 25% v/v DMSO. Different concentrations of formulated compounds were sprayed onto the insect diet at 10 μl, using a custom built micro atomizer, at two replications.
After application, microtiter plates were incubated at about 28±1° C. and about 80±5% relative humidity for 5 days. Egg and larval mortality was then visually assessed.

[5] = test system: yellow fever mosquito (Aedes aegypti); experiment: whole plant or invertebrate; details: 48 h, larval mortality visually assessed after 2 days, read-out: mortality in comparison with untreated controls
Method: For evaluating control of yellow fever mosquito (Aedes aegypti) the test unit consisted of 96-well-microtiter plates containing 200 μl of tap water per well and 5-15 freshly hatched A. aegypti larvae.
The active compounds were formulated using a solution containing 75% (v/v) water and 25% (v/v) DMSO. Different concentrations of formulated compounds or mixtures were sprayed onto the insect diet at 2.5 μl, using a custom built micro atomizer, at two replications.
After application, microtiter plates were incubated at 28±1° C., 80±5% RH for 2 days. Larval mortality was then visually assessed.

[6] = test system: Southern Armyworm (Spodoptera eridania), 2nd Instar Larvae; experiment: Action on southern armyworm (Spodoptera eridania), 2nd instar larvae, sprayed lima bean plants; details: 96 h, 2nd instar larvae on lima bean, 4 days after treatment, read-out: mortality in comparison with untreated controls
Method: as §1, with “into 10” for “into 5”, “or 20” for “or 10”
Lima bean plants (variety Sieva) were grown 2 plants to a pot and selected for treatment at the 1st true leaf stage. Test solutions were sprayed onto the foliage by an automated electrostatic plant sprayer equipped with an atomizing spray nozzle. The plants were dried in the sprayer fume hood and then removed from the sprayer. Each pot was placed into perforated plastic bags with a zip closure. About 10 to 11 armyworm larvae were placed into the bag and the bags zipped closed. Test plants were maintained in a growth room at about 250C and about 20-40% relative humidity for 4 days, avoiding direct exposure to fluorescent light (24 hour photoperiod) to prevent trapping of heat inside the bags. Mortality and reduced feeding were assessed 4 days after treatment, compared to untreated control plants.

[7] = test system: Orchid thrips (Dichromothrips corbetti); experiment: Action on orchid thrips (Dichromothrips corbetti), floral-immersion technique; details: adult thrips, mortality 72 hours after treatment, read-out: mortality in comparison with untreated controls
Method: Dichromothrips corbetti adults used for bioassay were obtained from a colony maintained continuously under laboratory conditions. For testing purposes, the test compound is diluted in a 1:1 mixture of acetone:water (vol:vol), plus Kinetic® HV at a rate of 0.01% v/v.
Thrips potency of each compound was evaluated by using a floral-immersion technique. All petals of individual, intact orchid flowers were dipped into treatment solution and allowed to dry in Petri dishes. Treated petals were placed into individual re-sealable plastic along with about 20 adult thrips. All test arenas were held under continuous light and a temperature of about 28° C. for duration of the assay. After 3 days, the numbers of live thrips were counted on each petal. The percent mortality was recorded 72 hours after treatment.

CC(/C=N/N=C1\SCC(=O)N1c1ccccc1C(C)C)=C\c1cnc(Nc2ccc(OC(F)(F)F)cc2)nc1 [Compound C-3, (2Z)-3-(2-isopropylphenyl)-2-[(E)-[(E)-2-methyl-3-[2-[4-(trifluoromethoxy)anilino]pyrimidin-5-yl]prop-2-enylidene]hydrazono]thiazolidin-4-one]
≥ 75%: mortality at 800 ppm [1] | mortality at 500 ppm [2] | mortality at 300 ppm [3] | mortality at 800 ppm [4] | mortality at 800 ppm [5] | mortality at 300 ppm [6] | mortality at 500 ppm [7]

CC(C)c1ccccc1N1C(=O)CS\C1=N/N=C/C=C/c1cnc(N(C)c2ccc(OC(F)(F)F)cc2)nc1 [Compound C-5, (2Z)-3-(2-isopropylphenyl)-2-[(E)-[(E)-3-[2-[N-methyl-4-(trifluoromethoxy)anilino]pyrimidin-5-yl]prop-2-enylidene]hydrazono]thiazolidin-4-one]
≥ 75%: mortality at 800 ppm [1] | mortality at 500 ppm [2] | mortality at 300 ppm [3] | mortality at 800 ppm [4] | mortality at 800 ppm [5] | mortality at 300 ppm [6] | mortality at 500 ppm [7]

CC(/C=N/NC(=S)Nc1ccccc1C(C)C)=C\c1cnc(N(C)c2ccc(OC(F)(F)F)cc2)nc1 [Compound C-6, 1-(2-isopropylphenyl)-3-[(E)-[(E)-2-methyl-3-[2-[N-methyl-4-(trifluoromethoxy)anilino]pyrimidin-5-yl]prop-2-enylidene]amino]thiourea]
≥ 75%: mortality at 800 ppm [1] | mortality at 500 ppm [2] | mortality at 300 ppm [3] | mortality at 800 ppm [4] | mortality at 800 ppm [5] | mortality at 300 ppm [6] | mortality at 500 ppm [7]

CC(/C=N/N=C1\SCC(=O)N1c1ccccc1C(C)C)=C\c1cnc(N(C)c2ccc(OC(F)(F)F)cc2)nc1 [Compound C-7, (2Z)-3-(2-isopropylphenyl)-2-[(E)-[(E)-2-methyl-3-[2-[N-methyl-4-(trifluoromethoxy)anilino]pyrimidin-5-yl]prop-2-enylidene]hydrazono]thiazolidin-4-one]
≥ 75%: mortality at 800 ppm [1] | mortality at 500 ppm [2] | mortality at 300 ppm [3] | mortality at 800 ppm [4] | mortality at 800 ppm [5] | mortality at 300 ppm [6] | mortality at 500 ppm [7]

CC(/C=N/NC(=S)Nc1ccccc1C(C)C)=C\c1cnc(N(C)c2ccc(OC(F)(F)F)cc2)c(N(C)C)c1 [Compound C-8, 1-[(E)-[(E)-3-[5-(dimethylamino)-6-[N-methyl-4-(trifluoromethoxy)anilino]-3-pyridyl]-2-methyl-prop-2-enylidene]amino]-3-(2-isopropylphenyl)thiourea]
≥ 75%: mortality at 800 ppm [1] | mortality at 500 ppm [2] | mortality at 300 ppm [3] | mortality at 800 ppm [4] | mortality at 300 ppm [6]

CC(/C=N/N=C1\SCC(=O)N1c1ccccc1C(C)C)=C\c1cnc(N(C)c2ccc(OC(F)(F)F)cc2)c(N(C)C)c1 [Compound C-9, (2Z)-2-[(E)-[(E)-3-[5-(dimethylamino)-6-[N-methyl-4-(trifluoromethoxy)anilino]-3-pyridyl]-2-methyl-prop-2-enylidene]hydrazono]-3-(2-isopropylphenyl)thiazolidin-4-one]
≥ 75%: mortality at 800 ppm [1] | mortality at 500 ppm [2] | mortality at 800 ppm [4] | mortality at 800 ppm [5] | mortality at 300 ppm [6] | mortality at 500 ppm [7]

CC(/C=N/N=C1\SCC(=O)N1c1ccccc1C(C)C)=C\c1ccc(N(C)c2ccc(OC(F)(F)F)cc2)nc1 [Compound C-12, (2Z)-3-(2-isopropylphenyl)-2-[(E)-[(E)-2-methyl-3-[6-[N-methyl-4-(trifluoromethoxy)anilino]-3-pyridyl]prop-2-enylidene]hydrazono]thiazolidin-4-one]
≥ 75%: mortality at 800 ppm [1] | mortality at 500 ppm [2] | mortality at 300 ppm [3] | mortality at 800 ppm [4] | mortality at 800 ppm [5] | mortality at 300 ppm [6] | mortality at 500 ppm [7]

CC(/C=N/NC(=S)Nc1ccccc1C(C)C)=C\c1ccc(N(C)c2ccc(OC(F)(F)F)cc2)nc1 [Compound C-15, 1-(2-isopropylphenyl)-3-[(E)-[(E)-2-methyl-3-[6-[N-methyl-4-(trifluoromethoxy)anilino]-3-pyridyl]prop-2-enylidene]amino]thiourea]
≥ 75%: mortality at 800 ppm [1] | mortality at 500 ppm [2] | mortality at 300 ppm [3] | mortality at 800 ppm [4] | mortality at 300 ppm [6] | mortality at 500 ppm [7]

Cc1nc(N(C)c2ccc(OC(F)(F)F)cc2)ncc1CC(C)/C=N/NC(=S)Nc1ccccc1C(C)C (stereo not shown) [Compound C-22, 1-(2-isopropylphenyl)-3-[(E)-[2-methyl-3-[4-methyl-2-[N-methyl-4-(trifluoromethoxy)anilino]pyrimidin-5-yl]propylidene]amino]thiourea]
≥ 75%: mortality at 800 ppm [1] | mortality at 300 ppm [3] | mortality at 800 ppm [4]

CC(/C=N/NC(=S)Nc1ccccc1C(C)C)=C\c1ccc(N(C)c2ccc(OC(F)(F)F)cc2)nn1 [Compound C-26, 1-(2-isopropylphenyl)-3-[(E)-[(E)-2-methyl-3-[6-[N-methyl-4-(trifluoromethoxy)anilino]pyridazin-3-yl]prop-2-enylidene]amino]thiourea]
≥ 75%: mortality at 800 ppm [1] | mortality at 500 ppm [2] | mortality at 300 ppm [3] | mortality at 800 ppm [4] | mortality at 300 ppm [6] | mortality at 500 ppm [7]

CC(/C=N/N=C1\SCC(=O)N1c1ccccc1C(C)C)=C\c1ccc(N(C)c2ccc(OC(F)(F)F)cc2)nn1 [Compound C-27, (2Z)-3-(2-isopropylphenyl)-2-[(E)-[(E)-2-methyl-3-[6-[N-methyl-4-(trifluoromethoxy)anilino]pyridazin-3-yl]prop-2-enylidene]hydrazono]thiazolidin-4-one]
≥ 75%: mortality at 800 ppm [1] | mortality at 500 ppm [2] | mortality at 800 ppm [4] | mortality at 800 ppm [5] | mortality at 300 ppm [6] | mortality at 500 ppm [7]
